# Measurements as given in ChEMBL document CHEMBL5550173, “Design, synthesis and biological evaluation of indoline-maleimide conjugates as potential antitumor agents for the treatment of colorectal cancer” (Bioorg Med Chem, 2024).
# Activity calls are given as the source filed them. The rule behind the calls is not given here.
# Legend:
# HCT-116 [1] = test: Cytotoxicity against human HCT-116 cells at 5 uM incubated for 72 hrs by MTS assay; assay type: functional
# RKO [2] = test: Cytotoxicity against human RKO cells incubated for 72 hrs by MTS assay; assay type: functional, cell-based
# HT-29 = test: Cytotoxicity against human HT-29 cells incubated for 72 hrs by MTS assay; assay type: functional, cell-based; settings: HT-29, 72 h
# [3] = Cytotoxicity against human NCM460 cells incubated for 72 hrs by MTS assay; assay type: toxicity, cell-based
# HCT-116 [4] = test: Inhibition of colony formation in human HCT-116 cells incubated for 10 days with every 3 days of media replacement by crystal violet staining based assay; assay type: functional, cell-based; settings: dose 1-4 µM, time 10.0 day
# HCT-116 [5] = test: Inhibition of colony formation in human HCT-116 cells at 4 uM incubated for 10 days with every 3 days of media replacement by crystal violet staining based assay; assay type: functional; settings: HCT-116, 240 h, time 10 day
# RKO [6] = test: Inhibition of colony formation in human RKO cells at 4 uM incubated for 10 days with every 3 days of media replacement by crystal violet staining based assay; assay type: functional; settings: 240 h, time 10 day
# HCT-116 [7] = test: Inhibition of cell migration in human HCT-116 cells at 2.5 to 10 uM measured upto 48 hrs by scratch wound healing assay; assay type: functional, cell-based; settings: dose 2.5-10 µM
# HCT-116 [8] = test: Induction of apoptosis in human HCT-116 cells assessed as early apoptotic cells at 2.5 uM incubated for 48 hrs by Annexin V-PE and propidium iodide staining based flow cytometry analysis (reference value: 0.4%); assay type: functional
# HCT-116 [9] = test: Induction of apoptosis in human HCT-116 cells assessed as early apoptotic cells at 5 uM incubated for 48 hrs by Annexin V-PE and propidium iodide staining based flow cytometry analysis (reference value: 0.4%); assay type: functional
# HCT-116 [10] = test: Induction of apoptosis in human HCT-116 cells assessed as late apoptotic cells at 5 uM incubated for 48 hrs by Annexin V-PE and propidium iodide staining based flow cytometry analysis (reference value: 0.5%); assay type: functional
# HCT-116 [11] = test: Induction of apoptosis in human HCT-116 cells assessed as viable cells at 10 uM incubated for 48 hrs by Annexin V-PE and propidium iodide staining based flow cytometry analysis (reference value: 97.8%); assay type: functional; settings: read-out: Activity
# HCT-116 [12] = test: Induction of apoptosis in human HCT-116 cells assessed as early apoptotic cells at 10 uM incubated for 48 hrs by Annexin V-PE and propidium iodide staining based flow cytometry analysis (reference value: 0.4%); assay type: functional
# HCT-116 [13] = test: Induction of apoptosis in human HCT-116 cells assessed as late apoptotic cells at 10 uM incubated for 48 hrs by Annexin V-PE and propidium iodide staining based flow cytometry analysis (reference value: 0.5%); assay type: functional
# HCT-116 [14] = test: Induction of apoptosis in human HCT-116 cells assessed as necrotic cells at 10 uM incubated for 48 hrs by Annexin V-PE and propidium iodide staining based flow cytometry analysis (reference value: 1.3%); assay type: functional
# RKO [15] = test: Induction of apoptosis in human RKO cells assessed as viable cells at 2.5 uM incubated for 48 hrs by Annexin V-PE and propidium iodide staining based flow cytometry analysis (reference value: 99.2%); assay type: functional; settings: read-out: Activity
# RKO [16] = test: Induction of apoptosis in human RKO cells assessed as necrotic cells at 2.5 uM incubated for 48 hrs by Annexin V-PE and propidium iodide staining based flow cytometry analysis (reference value: 0.3%); assay type: functional
# RKO [17] = test: Induction of apoptosis in human RKO cells assessed as early apoptotic cells at 5 uM incubated for 48 hrs by Annexin V-PE and propidium iodide staining based flow cytometry analysis (reference value: 0.2%); assay type: functional
# RKO [18] = test: Induction of apoptosis in human RKO cells assessed as necrotic cells at 5 uM incubated for 48 hrs by Annexin V-PE and propidium iodide staining based flow cytometry analysis (reference value: 0.3%); assay type: functional
# RKO [19] = test: Induction of apoptosis in human RKO cells assessed as viable cells at 10 uM incubated for 48 hrs by Annexin V-PE and propidium iodide staining based flow cytometry analysis (reference value: 99.2%); assay type: functional; settings: read-out: Activity
# RKO [20] = test: Induction of apoptosis in human RKO cells assessed as early apoptotic cells at 10 uM incubated for 48 hrs by Annexin V-PE and propidium iodide staining based flow cytometry analysis (reference value: 0.2%); assay type: functional
# RKO [21] = test: Induction of apoptosis in human RKO cells assessed as necrotic cells at 10 uM incubated for 48 hrs by Annexin V-PE and propidium iodide staining based flow cytometry analysis (reference value: 0.3%); assay type: functional
# HCT-116 [22] = test: Induction of apoptosis in human HCT-116 cells assessed as upregulation of cleaved caspase-3 expression incubated for 48 hrs by Western blotting analysis; assay type: functional, cell-based; settings: dose 2.5-10 µM
# HCT-116 [23] = test: Induction of cell cycle arrest in human HCT-116 cells assessed as upregulation of p21 expression at 2.5 to 10 uM incubated for 48 hrs by Western blotting analysis; assay type: functional, cell-based; settings: dose 2.5-10 µM
# HCT-116 [24] = test: Effect on CDK2 expression in human HCT-116 cells at 2.5 to 10 uM incubated for 48 hrs by Western blotting analysis; assay type: functional, cell-based; settings: dose 2.5-10 µM
# HCT-116 [25] = test: Effect on cyclin D1 expression in human HCT-116 cells at 2.5 to 10 uM incubated for 48 hrs by Western blotting analysis; assay type: functional, cell-based; settings: dose 2.5-10 µM
# RKO [26] = test: Induction of cell cycle arrest in human RKO cells assessed as downregulation of CDK4 expression at 2.5 to 10 uM incubated for 48 hrs by Western blotting analysis; assay type: functional, cell-based; settings: dose 2.5-10 µM
# RKO [27] = test: Induction of cell cycle arrest in human RKO cells assessed as upregulation of p53 expression at 2.5 to 10 uM incubated for 48 hrs by Western blotting analysis; assay type: functional, cell-based; settings: dose 2.5-10 µM
# RKO [28] = test: Induction of cell cycle arrest in human RKO cells assessed as upregulation of p21 expression at 2.5 to 10 uM incubated for 48 hrs by Western blotting analysis; assay type: functional, cell-based; settings: dose 2.5-10 µM
# RKO [29] = test: Effect on CDK2 expression in human RKO cells at 2.5 to 10 uM incubated for 48 hrs by Western blotting analysis; assay type: functional, cell-based; settings: dose 2.5-10 µM
# [30] = target: Glycogen synthase kinase-3 beta (Homo sapiens) (UniProt P49841); test: Inhibition of GSK-3beta phosphorylation in human HCT-116 cells by incubated for 48 hrs Western blotting analysis; assay type: cell-based; settings: dose 2.5-10 µM
# Sequence of Glycogen synthase kinase-3 beta (Homo sapiens) (P49841 whole entry, looked up): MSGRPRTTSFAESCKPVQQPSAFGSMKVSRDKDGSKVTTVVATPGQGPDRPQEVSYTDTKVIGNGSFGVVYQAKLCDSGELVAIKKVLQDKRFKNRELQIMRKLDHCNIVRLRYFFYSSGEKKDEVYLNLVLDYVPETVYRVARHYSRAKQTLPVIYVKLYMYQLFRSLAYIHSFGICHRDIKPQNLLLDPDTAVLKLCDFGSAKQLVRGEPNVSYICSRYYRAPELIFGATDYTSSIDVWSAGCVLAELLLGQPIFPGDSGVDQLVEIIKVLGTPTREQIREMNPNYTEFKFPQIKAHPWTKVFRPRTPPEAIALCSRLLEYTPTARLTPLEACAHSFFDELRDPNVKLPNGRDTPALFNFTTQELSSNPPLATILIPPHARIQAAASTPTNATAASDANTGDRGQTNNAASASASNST
# HCT-116 [31] = test: Effect on AKT level in human HCT-116 cells at 2.5 to 10 uM incubated for 48 hrs by Western blotting analysis; assay type: functional, cell-based; settings: dose 2.5-10 µM
# HCT-116 [32] = test: Effect on GSK-3beta level in human HCT-116 cells at 2.5 to 10 uM incubated for 48 hrs by Western blotting analysis; assay type: functional, cell-based; settings: dose 2.5-10 µM
# HCT-116 [33] = test: Antitumor activity against human HCT-116 cells xenografted in BALB/c mouse assessed as reduction in tumor volume at 5 to 10 mg/kg, ip measured every 2 days; assay type: functional, organism-based; settings: dose 5-10 mg/kg
# HCT-116 [34] = test: Antitumor activity against human HCT-116 cells xenografted in BALB/c mouse assessed as reduction in tumor weight at 5 to 10 mg/kg, ip administered every 2 days; assay type: functional, organism-based; settings: dose 5-10 mg/kg
# HCT-116 [35] = test: Antitumor activity against human HCT-116 cells xenografted in BALB/c mouse assessed as reduction in Ki67 protein expression at 5 to 10 mg/kg, ip measured every 2 days by immunohistochemistry analysis; assay type: functional, organism-based; settings: dose 5-10 mg/kg
# [36] = Acute toxicity in BALB/c mouse assessed as lung lesion at 50 to 100 mg/kg, ip measured every 2 days by H and E staining based assay; assay type: organism-based; settings: in vivo, 48 h, dose 50-100 mg/kg
smiles,measurement,setting,value
C=C(C)C(=O)N1CCc2cccc(C3=CC(=O)N(C)C3=O)c21,Activity,HCT-116 [1],98.06%
same,IC50,RKO [2],1100 nM
same,IC50,HT-29,1730 nM
same,IC50 at 72 h,[3],63700 nM
same,inhibition,HCT-116 [4],Dose-Dependent Effect
same,inhibition at 4 µM,HCT-116 [5],100%
same,inhibition at 4 µM,RKO [6],100%
same,inhibition,HCT-116 [7],Active
same,Activity,HCT-116 [8],0.7%
same,Activity,HCT-116 [9],1.5%
same,Activity,HCT-116 [10],1.7%
same,viability at 10 µM,HCT-116 [11],83.1%
same,Activity,HCT-116 [12],5%
same,Activity,HCT-116 [13],4.6%
same,Activity,HCT-116 [14],7.2%
same,viability at 2.5 µM,RKO [15],99%
same,Activity,RKO [16],0.1%
same,Activity,RKO [17],1.5%
same,Activity,RKO [18],0%
same,viability at 10 µM,RKO [19],93.4%
same,Activity,RKO [20],4.9%
same,Activity,RKO [21],0.7%
same,Activity,HCT-116 [22],Dose-Dependent Effect
same,Activity,HCT-116 [23],Active
same,Activity,HCT-116 [24],inactive
same,Activity,HCT-116 [25],inactive
same,Activity,RKO [26],Active
same,Activity,RKO [27],Active
same,Activity,RKO [28],Active
same,Activity,RKO [29],inactive
same,inhibition,[30],Dose-Dependent Effect
same,Activity,HCT-116 [31],inactive
same,Activity,HCT-116 [32],inactive
same,Activity,HCT-116 [33],Active
same,Activity,HCT-116 [34],Active
same,Activity,HCT-116 [35],Active
same,Activity,[36],Non-Toxic
